In patent US20190365906A1, “RANDOM COPOLYMER THERAPEUTIC AGENT CARRIERS AND ASSEMBLIES THEREOF” (University of Washington through its Center for …, priority 2013, published 2019):

System: HeLa cells
Assay: Live-cell fluorescence microscopy of intracellular distribution of transferrin-polymer conjugates
Type: cell-based, human
Conditions: 1 hour at 37° C.
Method: The intracellular distribution of fluorescently labeled transferrin-polymer conjugates was evaluated in cells using live-cell fluorescence microscopy. Cells were seeded in chamber slides at a concentration of 5000 cells/well. After allowing the cells adhere for 18 hours the media was replaced with fresh media containing the appropriate concentration of the copolymer-transferrin conjugates. Thirty minutes prior to imaging Hoechst (5 μg/mL) was added to the media and allowed to incubate at 37° C. After this time, the media was carefully aspirated and replaced with PBS. Immediately prior to imaging individual wells were aspirated and then treated with 2 μL of a 10 mg/mL cell mask stock in 200 μL of ice cold PBS. After 3 minutes the PBS was removed and washed three times with additional ice cold PBS. The mediChamber slides were placed on a Live-Cell Fluorescence Microscope (Nikon Ti-E) equipped with an environmental control chamber. […] After image acquisition, image stacks were deconvolved using object-based measurement software, Velocity (Perkin Elmer), to remove out-of focus fluorescence for the identification of conjugate containing compartments. To deconvolved image stacks, point spread functions were calculated for the green, blue, and deep red channel and applied using 25 iterations to reach a near 100 percent confidence interval. […]

fluorescently (ALEXA 488) labeled Transferrin
intracellular localisation of fluorescence: strongly localized within endosomes/lysosomes
